Test results as given in patent US4861774A, “Method of treating tumors using tetracyclo compounds” (priority 1984, dated 1989).
≈ marks a conversion by molar mass, not a printed value.

How the values were obtained:
[1] = system: Pseudomonas aeruginosa NCTC-10490; experiment: Antimicrobial activity, serial broth dilution (Test 2), Pseudomonas aeruginosa; type: cell-based; details: NCTC10490, overnight incubation at 37° C.
Protocol: (§1) Antimicrobial activity of the FR-900482 substance against some bacteria was determined by a serial broth dilution method in bouillon media for bacteria. Minimum inhibitory concentrations (MIC) were expressed in terms of μg/ml after overnight incubation at 37° C.

AH130 Hepatoma = experiment: in vivo rat ascitic tumor model, AH130 Hepatoma (Test 8); set-up: species or system rats (Donryu); details: 1.0 mg/kg i.p., days 1, 5 and 9; median survival time
Description: AH130 Hepatoma (1×10^6 cells), maintained i.p. by serial passage in female Donryu rats, was implanted i.p. to female Donryu rats on day 0, and the test compounds or vehicle were given i.p. to the rats once a day on days 1, 5 and 9. Ten rats were used for each test group or vehicle-treated control group.
Drug efficacy against the ascitic tumors is expressed as percentage of the median survival time of the test group to that of the control group. [formula]

[2] = system: Bacillus subtilis ATCC 6633; experiment: Antimicrobial activity, serial broth dilution (Test 2), Bacillus subtilis; type: cell-based; details: ATCC6633, overnight incubation at 37° C.
Protocol: as §1

[3] = Existence as mixture or single component by NMR spectra or silica gel TLC with chromatoscanner; type: physicochemical
B16 Melanoma = B16 Melanoma in mice (Test 5); type: in vivo, mice (BDF1); details: 10.0 mg/kg i.p., days 1-9
Protocol: B16 Melanoma (1:10 brei, 0.5 ml), maintained s.c. by serial passage in female C57BL/6 mice, was implanted i.p. to female BDF1 mice on day 0, and the test compounds or vehicle were given i.p. to the mice once a day on days 1-9.
Ten mice were used for each test group, and twenty mice were used for each vehicle-treated control group.
Drug efficacy against the ascitic tumors is expressed as percentage of the median (mean) survival time of the test group to that of the control group. [formula] .circle.2 Results

[4] = system: Escherichia coli NIHJ JC-2; experiment: Antimicrobial activity, serial broth dilution (Test 2), Escherichia coli; type: cell-based; details: NIHJJC2, overnight incubation at 37° C.
Protocol: as §1

NC(=O)OCC1c2c(O)cc(C=O)cc2N2CC3NC3C1(O)O2 (stereo not shown) [FR-900482 substance, 4-Formyl-6,9-dihydroxy-14-oxa-1,11-diazatetracyclo[7.4.1.0^2,7.0^10,12]tetradeca-2,4,6-trien-8-ylmethyl carbamate]
MIC [1]: 25 mg/L (≈ 77.8 µM)
T/C (AH130 Hepatoma): > 429%
MIC [2]: 50 mg/L (≈ 156 µM)
existence as mixture or single component ([3]; around neutral condition): mixture of two components
existence as mixture or single component ([3]; around pH 1 condition): single component
T/C (B16 Melanoma): 350%
MIC [4]: 50 mg/L (≈ 156 µM)
